# Measured values published in PubChem BioAssay AID2060501 (Molecular Pharmacology Branch, DTP, NCI, 2025).
# Tested on: 282377-053-R-J1-PDC complex spheroids, viability
# Experiment: Anticancer human tumor 282377-053-R-J1-PDC patient-derived colon adenocarcinoma cell line growth inhibition [GQUAD]
# Conditions: for IC50: curve of first compound; for viability, T/C: stronger effect = lower value
# Summary of the method: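 Multi-cell-type spheroids of tumor cells with HUVEC and mesenchymal stem cells, treated with drug combinations. Concentrations descend in half-log steps from near clinical Cmax, or from 10 microM where Cmax is unknown; viability read-out.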
# [1] = second compound 0.0316 µM, first compound 0.0316 µM
# [2] = second compound 0.0316 µM, first compound 0.1 µM
# [3] = second compound 0.0316 µM, first compound 0.316 µM
# [4] = second compound 0.0316 µM, first compound 1 µM
# [5] = second compound 0.0316 µM, first compound 3.16 µM
# [6] = second compound 0.0316 µM, first compound 10 µM
# [7] = second compound 0.1 µM, first compound 0.0316 µM
# [8] = second compound 0.1 µM, first compound 0.1 µM
# [9] = second compound 0.1 µM, first compound 0.316 µM
# [10] = second compound 0.1 µM, first compound 1 µM
# [11] = second compound 0.1 µM, first compound 3.16 µM
# [12] = second compound 0.1 µM, first compound 10 µM
# [13] = second compound 0.316 µM, first compound 0.0316 µM
# [14] = second compound 0.316 µM, first compound 0.1 µM
# [15] = second compound 0.316 µM, first compound 0.316 µM
# [16] = second compound 0.316 µM, first compound 1 µM
# [17] = second compound 0.316 µM, first compound 3.16 µM
# [18] = second compound 0.316 µM, first compound 10 µM
# [19] = second compound 1 µM, first compound 0.0316 µM
# [20] = second compound 1 µM, first compound 0.1 µM
# [21] = second compound 1 µM, first compound 0.316 µM
# [22] = second compound 1 µM, first compound 1 µM
# [23] = second compound 1 µM, first compound 3.16 µM
# [24] = second compound 1 µM, first compound 10 µM
# [25] = second compound 3.16 µM, first compound 0.0316 µM
# [26] = second compound 3.16 µM, first compound 0.1 µM
# [27] = second compound 3.16 µM, first compound 0.316 µM
# [28] = second compound 3.16 µM, first compound 1 µM
# [29] = second compound 3.16 µM, first compound 3.16 µM
# [30] = second compound 3.16 µM, first compound 10 µM
# [31] = second compound 10 µM, first compound 0.0316 µM
# [32] = second compound 10 µM, first compound 0.1 µM
# [33] = second compound 10 µM, first compound 0.316 µM
# [34] = second compound 10 µM, first compound 1 µM
# [35] = second compound 10 µM, first compound 3.16 µM
# [36] = second compound 10 µM, first compound 10 µM
# 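Further: spheroids exposed to compounds for 7 days before readout.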
# 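Wherever viability, T/C is given: percent of vehicle DMSO control viability with 100% = untreated-like growth.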
compound,measurement,setting,value
COc1ccc([C@@H](O)c2cc(-c3ncnc4cc(N5CCOCC5)ccc34)c(F)cc2Cl)nn1 + Cc1cnc(CNC(=O)c2c(=O)c3ccc(N4CCCN(C)CC4)nc3n3c2sc2ccccc23)cn1,IC50,second compound 0.0316 µM,> 10000 nM
same,IC50,second compound 0.1 µM,8310 nM
same,IC50,second compound 0.316 µM,3510 nM
same,IC50,second compound 1 µM,328 nM
same,IC50,second compound 3.16 µM,77.8 nM
same,IC50,second compound 10 µM,< 31.6 nM
same,"viability, T/C",[1],97%
same,"viability, T/C",[2],82.7%
same,"viability, T/C",[3],118%
same,"viability, T/C",[4],78.1%
same,"viability, T/C",[5],73.6%
same,"viability, T/C",[6],72%
same,"viability, T/C",[7],117%
same,"viability, T/C",[8],113%
same,"viability, T/C",[9],93.8%
same,"viability, T/C",[10],77.3%
same,"viability, T/C",[11],66%
same,"viability, T/C",[12],46.4%
same,"viability, T/C",[13],79.2%
same,"viability, T/C",[14],84.8%
same,"viability, T/C",[15],69.9%
same,"viability, T/C",[16],66.3%
same,"viability, T/C",[17],51.2%
same,"viability, T/C",[18],36.5%
same,"viability, T/C",[19],61.1%
same,"viability, T/C",[20],52%
same,"viability, T/C",[21],55.5%
same,"viability, T/C",[22],42%
same,"viability, T/C",[23],41.3%
same,"viability, T/C",[24],37.3%
same,"viability, T/C",[25],56.3%
same,"viability, T/C",[26],48.2%
same,"viability, T/C",[27],43.3%
same,"viability, T/C",[28],42.9%
same,"viability, T/C",[29],41.5%
same,"viability, T/C",[30],39.2%
same,"viability, T/C",[31],47%
same,"viability, T/C",[32],45.3%
same,"viability, T/C",[33],44.5%
same,"viability, T/C",[34],39.9%
same,"viability, T/C",[35],35.5%
same,"viability, T/C",[36],30.8%
Cn1ncnc1[C@H]1c2n[nH]c(=O)c3cc(F)cc(c23)N[C@@H]1c1ccc(F)cc1 + Cc1cnc(CNC(=O)c2c(=O)c3ccc(N4CCCN(C)CC4)nc3n3c2sc2ccccc23)cn1,IC50,second compound 0.0316 µM,> 316 nM
same,IC50,second compound 0.1 µM,> 316 nM
same,IC50,second compound 0.316 µM,> 316 nM
same,IC50,second compound 1 µM,285 nM
same,IC50,second compound 3.16 µM,32.7 nM
same,IC50,second compound 10 µM,< 0.999 nM
same,"viability, T/C","second compound 0.0316 µM, first compound 0.000999 µM",111%
same,"viability, T/C","second compound 0.0316 µM, first compound 0.00316 µM",87.7%
same,"viability, T/C","second compound 0.0316 µM, first compound 0.00999 µM",104%
same,"viability, T/C",[1],107%
same,"viability, T/C","second compound 0.0316 µM, first compound 0.0999 µM",95.9%
same,"viability, T/C",[3],102%
same,"viability, T/C","second compound 0.1 µM, first compound 0.000999 µM",109%
same,"viability, T/C","second compound 0.1 µM, first compound 0.00316 µM",101%
same,"viability, T/C","second compound 0.1 µM, first compound 0.00999 µM",98.7%
same,"viability, T/C",[7],94%
same,"viability, T/C","second compound 0.1 µM, first compound 0.0999 µM",115%
same,"viability, T/C",[9],116%
same,"viability, T/C","second compound 0.316 µM, first compound 0.000999 µM",86.1%
same,"viability, T/C","second compound 0.316 µM, first compound 0.00316 µM",84.1%
same,"viability, T/C","second compound 0.316 µM, first compound 0.00999 µM",88.4%
same,"viability, T/C",[13],93.2%
same,"viability, T/C","second compound 0.316 µM, first compound 0.0999 µM",79%
same,"viability, T/C",[15],71.9%
same,"viability, T/C","second compound 1 µM, first compound 0.000999 µM",65.7%
same,"viability, T/C","second compound 1 µM, first compound 0.00316 µM",66.1%
same,"viability, T/C","second compound 1 µM, first compound 0.00999 µM",52.5%
same,"viability, T/C",[19],62.5%
same,"viability, T/C","second compound 1 µM, first compound 0.0999 µM",51.5%
same,"viability, T/C",[21],49.4%
same,"viability, T/C","second compound 3.16 µM, first compound 0.000999 µM",56.6%
same,"viability, T/C","second compound 3.16 µM, first compound 0.00316 µM",47.2%
same,"viability, T/C","second compound 3.16 µM, first compound 0.00999 µM",51.5%
same,"viability, T/C",[25],49.5%
same,"viability, T/C","second compound 3.16 µM, first compound 0.0999 µM",52.3%
same,"viability, T/C",[27],46.2%
same,"viability, T/C","second compound 10 µM, first compound 0.000999 µM",43.3%
same,"viability, T/C","second compound 10 µM, first compound 0.00316 µM",44.1%
same,"viability, T/C","second compound 10 µM, first compound 0.00999 µM",52.4%
same,"viability, T/C",[31],45.1%
same,"viability, T/C","second compound 10 µM, first compound 0.0999 µM",51%
same,"viability, T/C",[33],46.7%
O=C(c1cc(Cc2n[nH]c(=O)c3ccccc23)ccc1F)N1CCN(C(=O)C2CC2)CC1 + Cc1cnc(CNC(=O)c2c(=O)c3ccc(N4CCCN(C)CC4)nc3n3c2sc2ccccc23)cn1,IC50,second compound 0.0316 µM,> 10000 nM
same,IC50,second compound 0.1 µM,> 10000 nM
same,IC50,second compound 0.316 µM,> 10000 nM
same,IC50,second compound 1 µM,> 10000 nM
same,IC50,second compound 3.16 µM,2430 nM
same,IC50,second compound 10 µM,70.1 nM
same,"viability, T/C",[1],103%
same,"viability, T/C",[2],100%
same,"viability, T/C",[3],140%
same,"viability, T/C",[4],92.9%
same,"viability, T/C",[5],90.6%
same,"viability, T/C",[6],89.2%
same,"viability, T/C",[7],106%
same,"viability, T/C",[8],121%
same,"viability, T/C",[9],93%
same,"viability, T/C",[10],84.9%
same,"viability, T/C",[11],110%
same,"viability, T/C",[12],92.3%
same,"viability, T/C",[13],84.2%
same,"viability, T/C",[14],91.9%
same,"viability, T/C",[15],74.6%
same,"viability, T/C",[16],89.8%
same,"viability, T/C",[17],95.6%
same,"viability, T/C",[18],73.3%
same,"viability, T/C",[19],61.2%
same,"viability, T/C",[20],55.8%
same,"viability, T/C",[21],54.7%
same,"viability, T/C",[22],61%
same,"viability, T/C",[23],60.8%
same,"viability, T/C",[24],54%
same,"viability, T/C",[25],60.8%
same,"viability, T/C",[26],51.1%
same,"viability, T/C",[27],59.2%
same,"viability, T/C",[28],52.3%
same,"viability, T/C",[29],46.2%
same,"viability, T/C",[30],48.6%
same,"viability, T/C",[31],52.9%
same,"viability, T/C",[32],47.4%
same,"viability, T/C",[33],47.7%
same,"viability, T/C",[34],48.9%
same,"viability, T/C",[35],40.1%
same,"viability, T/C",[36],46.6%
